{"source": "ChEMBL document CHEMBL4342445", "about": "“Structurally Diverse Meroterpenoids from a Marine-Derived Aspergillus sp. Fungus” (J Nat Prod, 2020)", "note": "Calls of active or inactive are those of the source. The calls are words filed in the database; no cut-off is given here.", "data": [{"molecular_target": "Acetylcholinesterase (Homo sapiens) (UniProt P22303)", "sequence (P22303 whole entry)": "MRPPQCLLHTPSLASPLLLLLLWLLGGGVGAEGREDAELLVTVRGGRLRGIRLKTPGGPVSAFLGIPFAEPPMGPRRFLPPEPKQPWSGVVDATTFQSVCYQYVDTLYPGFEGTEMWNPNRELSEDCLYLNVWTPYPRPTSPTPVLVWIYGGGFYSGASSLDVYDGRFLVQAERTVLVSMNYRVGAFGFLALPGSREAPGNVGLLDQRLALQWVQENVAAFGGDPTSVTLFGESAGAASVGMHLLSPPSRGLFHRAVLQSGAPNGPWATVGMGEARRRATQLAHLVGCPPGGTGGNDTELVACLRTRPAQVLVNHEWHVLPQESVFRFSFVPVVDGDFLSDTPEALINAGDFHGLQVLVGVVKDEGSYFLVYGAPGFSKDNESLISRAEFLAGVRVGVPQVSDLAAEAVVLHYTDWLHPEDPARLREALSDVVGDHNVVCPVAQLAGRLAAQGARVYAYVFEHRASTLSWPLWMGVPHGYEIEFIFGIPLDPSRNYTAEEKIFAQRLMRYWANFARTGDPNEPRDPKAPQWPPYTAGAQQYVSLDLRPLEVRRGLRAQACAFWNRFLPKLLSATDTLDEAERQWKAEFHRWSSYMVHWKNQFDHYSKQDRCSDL", "assay": "Inhibition of human erythrocytes AChE at 50 uM using acetylthiocholine iodide as substrate preincubated for 20 mins followed by substrate addition and measured every 30 secs for 1 hr by spectrophotometry based Ellman's method", "values": [{"smiles": "C=C1[C@@]23C(=O)O[C@H](C)[C@]24O[C@@]2(C(=C)[C@]5(CCC(=O)OC5(C)C)C[C@@H](OC(=O)/C(C)=C/C)[C@]32C)[C@H](OC(C)=O)[C@@]1(C)OC4=O", "inhibition": "inactive"}, {"smiles": "C=C1[C@]2(C)C(=O)[C@]3(O)[C@H](C)OC(=O)[C@]13[C@@]1(C)CC[C@@]3(C=CC(=O)OC3(C)C)C(C)=C1[C@@H]2OC(C)=O", "inhibition": "inactive"}, {"smiles": "C=C1[C@@]2(C)CC3=C(C)[C@]4(C=CC(=O)OC4(C)C)CC[C@]3(C)[C@@]13C(=O)O[C@@H](C)[C@@]3(O)C2=O", "inhibition": "inactive"}, {"smiles": "C=C1[C@@]23C(=O)O[C@H](C)[C@@]2(O)C(=O)O[C@]1(C)[C@@H](OC(C)=O)C1=C(C)[C@]2(C=CC(=O)OC2(C)C)CC[C@@]13C", "inhibition": "inactive"}, {"smiles": "C=C1[C@@]2(C)C[C@]3(C)[C@](C)(CC[C@@H]4C(C)(C)OC(=O)C=C[C@]43C)[C@@]13C(=O)O[C@H](C)[C@@]3(O)C2=O", "inhibition": "inactive"}, {"smiles": "C=C1[C@@]2(C)CC3=C(C)[C@]4(C=CC(=O)OC4(C)C)CC[C@]3(C)[C@@]13C(=O)O[C@H](C)[C@@]3(O)C2=O", "inhibition": "inactive"}, {"smiles": "C=C1[C@@]2(C)C[C@H]3[C@]4(C)C=CC(=O)OC(C)(C)[C@H]4CC[C@]3(C)[C@]1(C(=O)OC)C(=O)[C@@](C)(O)C2=O", "inhibition": "inactive"}, {"smiles": "C=C1[C@@]2(C(=O)OC)C(=O)[C@H](O)[C@]1(C)CC1=C(C)[C@]3(C=CC(=O)OC3(C)C)CC[C@@]12C", "inhibition": "inactive"}, {"smiles": "C=C1[C@@]23C(=O)O[C@H](C)[C@]24O[C@@]2(C(=C)[C@]5(C=CC(=O)OC5(C)C)CC[C@]32C)[C@H](OC(C)=O)[C@@]1(C)OC4=O", "inhibition": "inactive"}]}]}
